Assay results: PubChem BioAssay AID2060501 (Molecular Pharmacology Branch, DTP, NCI, 2025)

Test system: 282377-053-R-J1-PDC complex spheroids, viability
Assay: Anticancer human tumor 282377-053-R-J1-PDC patient-derived colon adenocarcinoma cell line growth inhibition [GQUAD]
Settings: for IC50: curve of first compound; for viability, T/C: stronger effect = lower value
Procedure, shortened: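 Multi-cell-type spheroids of tumor cells with HUVEC and mesenchymal stem cells, treated with drug combinations. Concentrations descend in half-log steps from near clinical Cmax, or from 10 microM where Cmax is unknown; viability read-out.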

[1] = second compound 0.0316 µM, first compound 0.0316 µM
[2] = second compound 0.0316 µM, first compound 0.1 µM
[3] = second compound 0.0316 µM, first compound 0.316 µM
[4] = second compound 0.0316 µM, first compound 1 µM
[5] = second compound 0.0316 µM, first compound 3.16 µM
[6] = second compound 0.0316 µM, first compound 10 µM
[7] = second compound 0.1 µM, first compound 0.0316 µM
[8] = second compound 0.1 µM, first compound 0.1 µM
[9] = second compound 0.1 µM, first compound 0.316 µM
[10] = second compound 0.1 µM, first compound 1 µM
[11] = second compound 0.1 µM, first compound 3.16 µM
[12] = second compound 0.1 µM, first compound 10 µM
[13] = second compound 0.316 µM, first compound 0.0316 µM
[14] = second compound 0.316 µM, first compound 0.1 µM
[15] = second compound 0.316 µM, first compound 0.316 µM
[16] = second compound 0.316 µM, first compound 1 µM
[17] = second compound 0.316 µM, first compound 3.16 µM
[18] = second compound 0.316 µM, first compound 10 µM
[19] = second compound 1 µM, first compound 0.0316 µM
[20] = second compound 1 µM, first compound 0.1 µM
[21] = second compound 1 µM, first compound 0.316 µM
[22] = second compound 1 µM, first compound 1 µM
[23] = second compound 1 µM, first compound 3.16 µM
[24] = second compound 1 µM, first compound 10 µM
[25] = second compound 3.16 µM, first compound 0.0316 µM
[26] = second compound 3.16 µM, first compound 0.1 µM
[27] = second compound 3.16 µM, first compound 0.316 µM
[28] = second compound 3.16 µM, first compound 1 µM
[29] = second compound 3.16 µM, first compound 3.16 µM
[30] = second compound 3.16 µM, first compound 10 µM
[31] = second compound 10 µM, first compound 0.0316 µM
[32] = second compound 10 µM, first compound 0.1 µM
[33] = second compound 10 µM, first compound 0.316 µM
[34] = second compound 10 µM, first compound 1 µM
[35] = second compound 10 µM, first compound 3.16 µM
[36] = second compound 10 µM, first compound 10 µM
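Note: spheroids exposed to compounds for 7 days before readout.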
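Throughout, for viability, T/C: percent of vehicle DMSO control viability with 100% = untreated-like growth.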

CC1COCCN1c1cc(-c2ccnn2C)c2ccnc(-c3ccn[nH]3)c2n1 (centres undefined) + Cc1cnc(CNC(=O)c2c(=O)c3ccc(N4CCCN(C)CC4)nc3n3c2sc2ccccc23)cn1
IC50 (second compound 0.0316 µM): 0.0974 µM
IC50 (second compound 0.1 µM): 0.0769 µM
IC50 (second compound 0.316 µM): < 0.0316 µM
IC50 (second compound 1 µM): < 0.0316 µM
IC50 (second compound 3.16 µM): < 0.0316 µM
IC50 (second compound 10 µM): < 0.0316 µM
viability, T/C [1]: 97%
viability, T/C [2]: 46.1%
viability, T/C [3]: 36%
viability, T/C [4]: 27.8%
viability, T/C [5]: 24.1%
viability, T/C [6]: 21.2%
viability, T/C [7]: 65.8%
viability, T/C [8]: 43.5%
viability, T/C [9]: 34.4%
viability, T/C [10]: 25.5%
viability, T/C [11]: 23.7%
viability, T/C [12]: 16.2%
viability, T/C [13]: 41.9%
viability, T/C [14]: 40.9%
viability, T/C [15]: 36.1%
viability, T/C [16]: 26.2%
viability, T/C [17]: 21.5%
viability, T/C [18]: 18.4%
viability, T/C [19]: 40.4%
viability, T/C [20]: 32%
viability, T/C [21]: 26.8%
viability, T/C [22]: 26.2%
viability, T/C [23]: 23.5%
viability, T/C [24]: 16.3%
viability, T/C [25]: 35.4%
viability, T/C [26]: 32.8%
viability, T/C [27]: 25.4%
viability, T/C [28]: 22.8%
viability, T/C [29]: 21.1%
viability, T/C [30]: 15.8%
viability, T/C [31]: 26.9%
viability, T/C [32]: 22.5%
viability, T/C [33]: 27.1%
viability, T/C [34]: 23%
viability, T/C [35]: 21.5%
viability, T/C [36]: 15.6%

CC1COCCN1c1cc(C2(O)CC3CCC(C2)O3)c2cnn(-c3ccn[nH]3)c2n1 (centres undefined) + Cc1cnc(CNC(=O)c2c(=O)c3ccc(N4CCCN(C)CC4)nc3n3c2sc2ccccc23)cn1
IC50 (second compound 0.0316 µM): 0.134 µM
IC50 (second compound 0.1 µM): 0.0739 µM
IC50 (second compound 0.316 µM): < 0.0316 µM
IC50 (second compound 1 µM): < 0.0316 µM
IC50 (second compound 3.16 µM): < 0.0316 µM
IC50 (second compound 10 µM): < 0.0316 µM
viability, T/C [1]: 96.4%
viability, T/C [2]: 49.5%
viability, T/C [3]: 39.7%
viability, T/C [4]: 24.6%
viability, T/C [5]: 20.5%
viability, T/C [6]: 12.6%
viability, T/C [7]: 71.9%
viability, T/C [8]: 41.3%
viability, T/C [9]: 27.6%
viability, T/C [10]: 26.8%
viability, T/C [11]: 21.8%
viability, T/C [12]: 15.1%
viability, T/C [13]: 50.1%
viability, T/C [14]: 34.8%
viability, T/C [15]: 28.8%
viability, T/C [16]: 22.9%
viability, T/C [17]: 17.7%
viability, T/C [18]: 15%
viability, T/C [19]: 42%
viability, T/C [20]: 25.9%
viability, T/C [21]: 28.7%
viability, T/C [22]: 23.1%
viability, T/C [23]: 21.8%
viability, T/C [24]: 14.3%
viability, T/C [25]: 33.6%
viability, T/C [26]: 23.4%
viability, T/C [27]: 23.8%
viability, T/C [28]: 21.7%
viability, T/C [29]: 18.6%
viability, T/C [30]: 10.6%
viability, T/C [31]: 32.8%
viability, T/C [32]: 20.1%
viability, T/C [33]: 22.2%
viability, T/C [34]: 18%
viability, T/C [35]: 17%
viability, T/C [36]: 0.6%
